Data on 15 compounds can be found in PubChem BioAssay (NCI).

Some test systems named below: M14 melanoma; COLO 205 colon; ACHN renal; RPMI-8226 leukemia; SF-268 CNS; CCRF-CEM leukemia; A498 renal; CAKI-1 renal; OVCAR-3 ovarian; SF-539 CNS.
Common to all, as to test: NCI tumour cell line growth inhibition, 48 h

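Following 48 hours of exposure in 96-well plates, responses at five concentrations were used to interpolate endpoints linearly. GI50: concentration for 50% inhibition of growth. At the TGI there is no net growth.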 A value given as a limit tells only on which side of the number the result lay.

As for `CC(=O)O[C@]12CCCCCC1C1(O)C(O)CCC[C@H]12` (stereo not given in full), the TGI in the assay on M14 melanoma, with COLO 205 colon, in the assay with ACHN renal, in the assay with RPMI-8226 leukemia, in the assay on SF-268 CNS and in the assay on CCRF-CEM leukemia was more than 100 µM in each case.

`COc1ccc(CC(O)CN2CCOCC2)cc1` (stereo not given): the TGI in the assay on A498 renal, in the assay on M14 melanoma, in the assay with CAKI-1 renal, in the assay on ACHN renal, with SF-268 CNS and in the assay on OVCAR-3 ovarian was more than 100 µM throughout. The compound also registered a TGI with CCRF-CEM leukemia of more than 100 µM.

As to `O=C(CCCN1CCC2(CC1)CC(=O)N(N1CCOCC1)C2=O)c1ccccc1`, the TGI with M14 melanoma, with CAKI-1 renal, with COLO 205 colon, in the assay on SF-539 CNS, in the assay on ACHN renal and with RPMI-8226 leukemia was more than 100 µM each time. The TGI in the assay on SF-268 CNS, with OVCAR-3 ovarian and in the assay with CCRF-CEM leukemia was more than 100 µM throughout.

For `COC(=O)c1c2c(cc3c1CC1(C3)Cc3cc4c(c(C(=O)OC)c3C1)CCCC4)CCCC2`, the TGI in the assay on A498 renal, in the assay with M14 melanoma, with COLO 205 colon, in the assay on SF-539 CNS, with ACHN renal and in the assay with RPMI-8226 leukemia was more than 100 µM each time. Besides, the TGI is more than 100 µM in the assay with OVCAR-3 ovarian and 96 µM in the assay on CCRF-CEM leukemia.

With `O=C1C[C@H](Sc2ccccc2)C2(OCCO2)[C@@H](Sc2ccccc2)C1`, the TGI is more than 66.7 µM in the assay on A498 renal; 6.52 µM in the assay with M14 melanoma; 12.8 µM in the assay on CAKI-1 renal; 15.4 µM in the assay on COLO 205 colon; 4.05 µM in the assay with SF-539 CNS; 5.62 µM in the assay with ACHN renal. Further, the TGI in the assay on SF-268 CNS was determined as 8.83 µM; in the assay with OVCAR-3 ovarian it was 7.94 µM; in the assay on CCRF-CEM leukemia, 1.76 µM.

Regarding `COCOc1ccc(Cn2c(=O)n(C)c(=O)c3c2ncn3C)cc1[N+](=O)[O-]`, the TGI with M14 melanoma, in the assay on COLO 205 colon, with SF-539 CNS, in the assay with ACHN renal, in the assay with RPMI-8226 leukemia and with SF-268 CNS was more than 100 µM in each case. The TGI with OVCAR-3 ovarian and with CCRF-CEM leukemia was more than 100 µM in each case.

Turning to `COc1cc(C2SCC(=O)N2c2ccc(NC(=O)c3ccc(N4C(=O)CSC4c4cc(OC)c(OC)c(OC)c4)cc3)cc2)cc(OC)c1OC` (stereo not given), the TGI with M14 melanoma, with CAKI-1 renal, with COLO 205 colon, in the assay with SF-539 CNS, in the assay with ACHN renal and in the assay with RPMI-8226 leukemia was more than 100 µM in each case. Further, the TGI with SF-268 CNS, in the assay on OVCAR-3 ovarian and in the assay with CCRF-CEM leukemia was more than 100 µM in each case.

Turning to `C(=N\NC1=NCCCN1)/c1ccc2ccccc2c1`, the TGI stood at 20.8 µM in the assay with A498 renal; 22.1 µM in the assay on M14 melanoma; 19.3 µM with COLO 205 colon; 31.1 µM with SF-539 CNS; 22.2 µM in the assay with ACHN renal; 28.3 µM with RPMI-8226 leukemia. Besides, the TGI in the assay on SF-268 CNS was 30.2 µM; in the assay with OVCAR-3 ovarian it was 32.2 µM; in the assay with CCRF-CEM leukemia, 43.8 µM.

For `N#CCCN(CCC#N)c1ccc(/C=C2\N=C(c3ccccc3)N(c3ccc(Cl)cc3)C2=O)cc1`, the TGI with A498 renal, in the assay with M14 melanoma, in the assay on COLO 205 colon, in the assay on SF-539 CNS, in the assay with ACHN renal and in the assay with RPMI-8226 leukemia was more than 100 µM each time. Further, the TGI with SF-268 CNS, in the assay on OVCAR-3 ovarian and in the assay on CCRF-CEM leukemia was more than 100 µM in each case.

For the compound `CCOC(=N)n1c(=O)n(C2=NCCN2)c2ccccc21`, the TGI with A498 renal, in the assay with M14 melanoma, in the assay with CAKI-1 renal, in the assay with COLO 205 colon, with SF-539 CNS and with ACHN renal was more than 100 µM throughout. Further, the TGI in the assay with SF-268 CNS, in the assay with OVCAR-3 ovarian and in the assay on CCRF-CEM leukemia was more than 100 µM throughout.

For the compound `COc1cc([N+](=O)[O-])c(OC)cc1-c1nc2sc(Cl)cn2c1/C=N/Nc1ccccn1`, the GI50 with A498 renal is 8.95 µM; in the assay on COLO 205 colon it was more than 50 µM; with SF-539 CNS, 9.7 µM; with ACHN renal, 8.43 µM; in the assay on RPMI-8226 leukemia, 30.1 µM; in the assay with SF-268 CNS, 19.2 µM. In addition, the GI50 in the assay on CCRF-CEM leukemia is more than 50 µM. The TGI in the assay with A498 renal is 19.4 µM; in the assay on COLO 205 colon it was more than 50 µM; in the assay on SF-539 CNS, 16.8 µM; with ACHN renal, 16.9 µM; in the assay with RPMI-8226 leukemia, more than 50 µM; in the assay with SF-268 CNS, more than 50 µM. This compound gave a TGI in the assay with CCRF-CEM leukemia of more than 50 µM.

As to `CC(O)C1CC1(CO)CNc1cc(Cl)nc(N)n1` (stereo not given), the TGI with CAKI-1 renal, with COLO 205 colon, in the assay on SF-539 CNS, with ACHN renal, with RPMI-8226 leukemia and in the assay with SF-268 CNS was more than 100 µM throughout. Also, the TGI in the assay with OVCAR-3 ovarian and with CCRF-CEM leukemia was more than 100 µM in each case.

As for `Cc1c2c(n(CCc3ccc(Cl)cc3)c1C)NN=C(C#N)S2(=O)=O`, the TGI in the assay on M14 melanoma, in the assay with COLO 205 colon, with SF-539 CNS, in the assay with ACHN renal, in the assay with RPMI-8226 leukemia and with SF-268 CNS was more than 100 µM each time. In addition, the TGI in the assay with OVCAR-3 ovarian is more than 100 µM.

For the compound `O=P(c1ccccc1)(c1ccccc1)N1O[C@@H](c2ccccc2)C=C[C@H]1c1ccccc1`, the TGI in the assay with M14 melanoma worked out at 23.9 µM; in the assay with CAKI-1 renal it was 22.4 µM; in the assay with COLO 205 colon it was 31.2 µM; in the assay with SF-539 CNS, 33 µM; with ACHN renal, 21.9 µM; in the assay on RPMI-8226 leukemia, 56.6 µM. Besides, the TGI with SF-268 CNS was 26.2 µM; in the assay on OVCAR-3 ovarian, 27.8 µM; with CCRF-CEM leukemia, 53.5 µM.

In the case of `CC(C(=O)n1nnc2ccccc21)N(c1ccccc1)c1ccccc1` (stereo not given), the TGI in the assay with M14 melanoma, in the assay on CAKI-1 renal, with COLO 205 colon, with SF-539 CNS, in the assay with ACHN renal and with RPMI-8226 leukemia was more than 100 µM throughout. Besides, the TGI with SF-268 CNS, in the assay with OVCAR-3 ovarian and in the assay with CCRF-CEM leukemia was more than 100 µM throughout.
